# Measurements reported in PubChem BioAssay (NCI).
#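 Five compound concentrations were applied to cells in 96-well plates for 48 hours; endpoints were derived by simple linear interpolation of the resulting dose-response curve. GI50 marks 50% less growth. TGI is the concentration that stops growth completely.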
# Assays:
# Test in all cases: NCI-60 cell line screen, 48 h
# RPMI-8226 leukemia = system: RPMI-8226 leukemia
# 786-0 renal = system: 786-0 renal
# CCRF-CEM leukemia = system: CCRF-CEM leukemia
# OVCAR-4 ovarian = system: OVCAR-4 ovarian
# SNB-19 CNS = system: SNB-19 CNS
# PC-3 prostate = system: PC-3 prostate
# SW-620 colon = system: SW-620 colon
# SK-MEL-5 melanoma = system: SK-MEL-5 melanoma
# NCI-H522 lung = system: NCI-H522 lung
# DU-145 prostate = system: DU-145 prostate
# LOX IMVI melanoma = system: LOX IMVI melanoma
# SK-OV-3 ovarian = system: SK-OV-3 ovarian
# OVCAR-3 ovarian = system: OVCAR-3 ovarian
# EKVX NSCLC = system: EKVX NSCLC
# T-47D breast = system: T-47D breast
# M14 melanoma = system: M14 melanoma
# ACHN renal = system: ACHN renal
# HT29 colon = system: HT29 colon
# RXF 393 renal = system: RXF 393 renal
# MCF7 breast = system: MCF7 breast
# UO-31 renal = system: UO-31 renal
# MDA-MB-231 breast = system: MDA-MB-231 breast
# CAKI-1 renal = system: CAKI-1 renal
# SF-268 CNS = system: SF-268 CNS
# TK-10 renal = system: TK-10 renal
# MDA-MB-435 = system: MDA-MB-435
# HL-60(TB) leukemia = system: HL-60(TB) leukemia
# SK-MEL-2 melanoma = system: SK-MEL-2 melanoma
# UACC-62 melanoma = system: UACC-62 melanoma
# HOP-62 NSCLC = system: HOP-62 NSCLC
# OVCAR-5 ovarian = system: OVCAR-5 ovarian
# SR leukemia = system: SR leukemia
# COLO 205 colon = system: COLO 205 colon
# MOLT-4 leukemia = system: MOLT-4 leukemia
# SF-295 CNS = system: SF-295 CNS
# OVCAR-8 ovarian = system: OVCAR-8 ovarian
# SNB-75 CNS = system: SNB-75 CNS
# NCI-H460 lung = system: NCI-H460 lung
# SF-539 CNS = system: SF-539 CNS
# A549 NSCLC = system: A549 NSCLC
# KM12 colon = system: KM12 colon
# NCI-H226 lung = system: NCI-H226 lung
# HCC-2998 colon = system: HCC-2998 colon
# HCT-116 colon = system: HCT-116 colon
# BT-549 breast = system: BT-549 breast
# SN12C renal = system: SN12C renal
# HOP-92 NSCLC = system: HOP-92 NSCLC
# NCI-H23 lung = system: NCI-H23 lung
# UACC-257 melanoma = system: UACC-257 melanoma
# HCT-15 colon = system: HCT-15 colon
# NCI/ADR-RES ovarian = system: NCI/ADR-RES ovarian
# IGROV1 ovarian = system: IGROV1 ovarian
# U251 CNS = system: U251 CNS
# SK-MEL-28 melanoma = system: SK-MEL-28 melanoma
# K-562 leukemia = system: K-562 leukemia
# MALME-3M melanoma = system: MALME-3M melanoma
# HS 578T breast = system: HS 578T breast
# A498 renal = system: A498 renal
smiles,measurement,setting,value
COc1ccc(/C(COc2ccc3oc(-c4ccccc4)cc(=O)c3c2)=N\O)cc1,GI50,RPMI-8226 leukemia,196 nM
same,TGI,RPMI-8226 leukemia,20000 nM
same,GI50,786-0 renal,855 nM
same,TGI,786-0 renal,> 35600 nM
same,GI50,CCRF-CEM leukemia,346 nM
same,TGI,CCRF-CEM leukemia,> 50000 nM
same,GI50,OVCAR-4 ovarian,10400 nM
same,TGI,OVCAR-4 ovarian,> 29900 nM
same,GI50,SNB-19 CNS,8570 nM
same,TGI,SNB-19 CNS,> 36500 nM
same,GI50,PC-3 prostate,202 nM
same,TGI,PC-3 prostate,> 19200 nM
same,GI50,SW-620 colon,382 nM
same,TGI,SW-620 colon,> 50000 nM
same,GI50,SK-MEL-5 melanoma,930 nM
same,TGI,SK-MEL-5 melanoma,7980 nM
same,GI50,NCI-H522 lung,1870 nM
same,TGI,NCI-H522 lung,39500 nM
same,GI50,DU-145 prostate,2270 nM
same,TGI,DU-145 prostate,13400 nM
same,GI50,LOX IMVI melanoma,32.2 nM
same,TGI,LOX IMVI melanoma,2690 nM
same,GI50,SK-OV-3 ovarian,747 nM
same,TGI,SK-OV-3 ovarian,> 33500 nM
same,GI50,OVCAR-3 ovarian,< 5 nM
same,TGI,OVCAR-3 ovarian,53.8 nM
same,GI50,EKVX NSCLC,229 nM
same,TGI,EKVX NSCLC,1910 nM
same,GI50,T-47D breast,2410 nM
same,TGI,T-47D breast,> 50000 nM
same,GI50,M14 melanoma,321 nM
same,TGI,M14 melanoma,> 50000 nM
same,GI50,ACHN renal,331 nM
same,TGI,ACHN renal,20000 nM
same,GI50,HT29 colon,783 nM
same,TGI,HT29 colon,> 50000 nM
same,GI50,RXF 393 renal,47400 nM
same,TGI,RXF 393 renal,> 50000 nM
same,GI50,MCF7 breast,< 5 nM
same,TGI,MCF7 breast,11600 nM
same,GI50,UO-31 renal,1600 nM
same,TGI,UO-31 renal,> 50000 nM
same,GI50,MDA-MB-231 breast,182 nM
same,TGI,MDA-MB-231 breast,9170 nM
same,GI50,CAKI-1 renal,61.8 nM
same,TGI,CAKI-1 renal,24700 nM
same,GI50,SF-268 CNS,162 nM
same,TGI,SF-268 CNS,1360 nM
same,GI50,TK-10 renal,149 nM
same,TGI,TK-10 renal,9750 nM
same,GI50,MDA-MB-435,< 5 nM
same,TGI,MDA-MB-435,< 5 nM
same,TGI,HL-60(TB) leukemia,> 23200 nM
same,GI50,SK-MEL-2 melanoma,32100 nM
same,TGI,SK-MEL-2 melanoma,> 50000 nM
same,GI50,UACC-62 melanoma,33.8 nM
same,TGI,UACC-62 melanoma,2220 nM
same,GI50,HOP-62 NSCLC,1720 nM
same,TGI,HOP-62 NSCLC,> 50000 nM
same,GI50,OVCAR-5 ovarian,377 nM
same,TGI,OVCAR-5 ovarian,> 25500 nM
same,TGI,SR leukemia,> 50000 nM
same,GI50,COLO 205 colon,606 nM
same,TGI,COLO 205 colon,19200 nM
same,GI50,MOLT-4 leukemia,678 nM
same,TGI,MOLT-4 leukemia,> 50000 nM
same,GI50,SF-295 CNS,< 5 nM
same,TGI,SF-295 CNS,154 nM
same,GI50,OVCAR-8 ovarian,209 nM
same,GI50,SNB-75 CNS,1300 nM
same,TGI,SNB-75 CNS,23200 nM
same,GI50,NCI-H460 lung,88.2 nM
same,TGI,NCI-H460 lung,> 16300 nM
same,GI50,SF-539 CNS,1250 nM
same,TGI,SF-539 CNS,2720 nM
same,GI50,A549 NSCLC,133 nM
same,TGI,A549 NSCLC,> 50000 nM
same,GI50,KM12 colon,24.5 nM
same,TGI,KM12 colon,1890 nM
same,GI50,NCI-H226 lung,12300 nM
same,TGI,NCI-H226 lung,> 50000 nM
same,GI50,HCC-2998 colon,145 nM
same,TGI,HCC-2998 colon,983 nM
same,GI50,HCT-116 colon,< 5 nM
same,TGI,HCT-116 colon,9360 nM
same,GI50,BT-549 breast,836 nM
same,TGI,BT-549 breast,5500 nM
same,GI50,SN12C renal,231 nM
same,TGI,SN12C renal,4540 nM
same,GI50,HOP-92 NSCLC,> 31200 nM
same,TGI,HOP-92 NSCLC,> 50000 nM
same,GI50,NCI-H23 lung,189 nM
same,TGI,NCI-H23 lung,9750 nM
same,GI50,UACC-257 melanoma,316 nM
same,GI50,HCT-15 colon,26.4 nM
same,GI50,NCI/ADR-RES ovarian,110 nM
same,TGI,NCI/ADR-RES ovarian,5510 nM
same,GI50,IGROV1 ovarian,< 5 nM
same,TGI,IGROV1 ovarian,> 50000 nM
same,GI50,U251 CNS,130 nM
same,TGI,U251 CNS,12200 nM
same,GI50,SK-MEL-28 melanoma,650 nM
same,TGI,SK-MEL-28 melanoma,5130 nM
same,TGI,K-562 leukemia,> 33300 nM
O=C(Nc1ccccc1)Nc1ccc2cc3ccc(NC(=O)Nc4ccccc4)cc3nc2c1,GI50,RPMI-8226 leukemia,5420 nM
same,TGI,RPMI-8226 leukemia,> 100000 nM
same,GI50,786-0 renal,1640 nM
same,TGI,786-0 renal,3340 nM
same,GI50,CCRF-CEM leukemia,276 nM
same,TGI,CCRF-CEM leukemia,828 nM
same,GI50,OVCAR-4 ovarian,1120 nM
same,TGI,OVCAR-4 ovarian,2420 nM
same,GI50,SNB-19 CNS,1580 nM
same,TGI,SNB-19 CNS,3050 nM
same,GI50,SW-620 colon,331 nM
same,TGI,SW-620 colon,1190 nM
same,GI50,SK-MEL-5 melanoma,1650 nM
same,TGI,SK-MEL-5 melanoma,3110 nM
same,GI50,NCI-H522 lung,1600 nM
same,TGI,NCI-H522 lung,3350 nM
same,GI50,DU-145 prostate,2410 nM
same,TGI,DU-145 prostate,7490 nM
same,GI50,LOX IMVI melanoma,467 nM
same,TGI,LOX IMVI melanoma,1670 nM
same,GI50,SK-OV-3 ovarian,2130 nM
same,TGI,SK-OV-3 ovarian,4500 nM
same,GI50,OVCAR-3 ovarian,1100 nM
same,TGI,OVCAR-3 ovarian,2450 nM
same,GI50,EKVX NSCLC,4290 nM
same,TGI,EKVX NSCLC,> 100000 nM
same,GI50,T-47D breast,1530 nM
same,TGI,T-47D breast,3080 nM
same,GI50,ACHN renal,3570 nM
same,TGI,ACHN renal,> 100000 nM
same,GI50,HT29 colon,1890 nM
same,TGI,HT29 colon,3730 nM
same,GI50,RXF 393 renal,1490 nM
same,TGI,RXF 393 renal,3610 nM
same,GI50,MCF7 breast,1080 nM
same,TGI,MCF7 breast,3140 nM
same,GI50,MALME-3M melanoma,1540 nM
same,TGI,MALME-3M melanoma,3060 nM
same,GI50,UO-31 renal,> 100000 nM
same,TGI,UO-31 renal,> 100000 nM
same,GI50,MDA-MB-231 breast,1400 nM
same,TGI,MDA-MB-231 breast,2800 nM
same,GI50,HS 578T breast,1530 nM
same,TGI,HS 578T breast,3470 nM
same,GI50,CAKI-1 renal,2950 nM
same,TGI,CAKI-1 renal,12300 nM
same,GI50,SF-268 CNS,1680 nM
same,TGI,SF-268 CNS,3540 nM
same,GI50,TK-10 renal,3980 nM
same,TGI,TK-10 renal,9120 nM
same,GI50,MDA-MB-435,1680 nM
same,TGI,MDA-MB-435,3150 nM
same,GI50,A498 renal,2740 nM
same,TGI,A498 renal,8870 nM
same,GI50,SK-MEL-2 melanoma,1720 nM
same,TGI,SK-MEL-2 melanoma,3240 nM
same,GI50,UACC-62 melanoma,1750 nM
same,TGI,UACC-62 melanoma,3210 nM
same,GI50,HOP-62 NSCLC,1590 nM
same,TGI,HOP-62 NSCLC,3400 nM
same,GI50,OVCAR-5 ovarian,3100 nM
same,TGI,OVCAR-5 ovarian,> 100000 nM
same,GI50,SR leukemia,287 nM
same,TGI,SR leukemia,734 nM
same,GI50,COLO 205 colon,573 nM
same,TGI,COLO 205 colon,1880 nM
same,GI50,MOLT-4 leukemia,559 nM
same,TGI,MOLT-4 leukemia,2130 nM
same,GI50,SF-295 CNS,1820 nM
same,TGI,SF-295 CNS,3720 nM
same,GI50,OVCAR-8 ovarian,1150 nM
same,TGI,OVCAR-8 ovarian,2780 nM
same,GI50,SNB-75 CNS,1970 nM
same,TGI,SNB-75 CNS,3730 nM
same,GI50,NCI-H460 lung,3950 nM
same,TGI,NCI-H460 lung,> 100000 nM
same,GI50,SF-539 CNS,1630 nM
same,TGI,SF-539 CNS,3010 nM
same,GI50,A549 NSCLC,11200 nM
same,TGI,A549 NSCLC,> 100000 nM
same,GI50,KM12 colon,1470 nM
same,TGI,KM12 colon,4070 nM
same,GI50,NCI-H226 lung,1710 nM
same,TGI,NCI-H226 lung,4150 nM
same,GI50,HCC-2998 colon,556 nM
same,TGI,HCC-2998 colon,1910 nM
same,GI50,HCT-116 colon,232 nM
same,TGI,HCT-116 colon,615 nM
same,GI50,BT-549 breast,1880 nM
same,TGI,BT-549 breast,3690 nM
same,GI50,SN12C renal,1340 nM
same,TGI,SN12C renal,2720 nM
same,GI50,HOP-92 NSCLC,1580 nM
same,TGI,HOP-92 NSCLC,3200 nM
same,GI50,NCI-H23 lung,1480 nM
same,TGI,NCI-H23 lung,3300 nM
same,GI50,HCT-15 colon,37200 nM
same,TGI,HCT-15 colon,> 100000 nM
same,GI50,NCI/ADR-RES ovarian,68700 nM
same,TGI,NCI/ADR-RES ovarian,> 100000 nM
same,GI50,IGROV1 ovarian,1660 nM
same,TGI,IGROV1 ovarian,4300 nM
same,GI50,U251 CNS,978 nM
same,TGI,U251 CNS,2280 nM
same,GI50,SK-MEL-28 melanoma,1820 nM
same,TGI,SK-MEL-28 melanoma,3220 nM
same,GI50,K-562 leukemia,363 nM
same,TGI,K-562 leukemia,1100 nM
